For series [1], the target named is His-GST-METTL3^MTD-METTL14^MTD (human) (UniProt Q86U44).
Series [2] can be described thus: Cell viability assay (CellTiter-Glo) on MOLM-13. It counts as cell-based. Particulars: human, MOLM-13 cells, average of two biological replicates; for viability at 72 h, […]: 2.5 µM. In a few lines:
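MOLM-13 AML cells grown in RPMI 1640 with 10% FBS at 37 °C, 5% CO2. Viability read as ATP luminescence by CellTiter-Glo after 10 min at room temperature, with background from cell-free medium wells subtracted.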

The target in the next series is METTL3-14 (Homo sapiens, UniProt Q86U44). As to the kind of experiment: Cellular degradation assay (Western blot), METTL3 and/or METTL14 (METTL3–14) in MOLM-13. Format: cell-based. Conditions: for degradation of METTL3 and/or METTL14: MOLM-13, 2 μM, 24 h, Western blot. More on the design: METTL3–14 degradation up to 70% of the endogenous level; endogenous in cells; host or cells: MOLM-13, KASUMI-1, THP-1, NOMO-1. As for the experimental part: MOLM-13, NOMO-1, THP-1, Kasumi-1, PC3, and DU145 cell lines were obtained from DSMZ-German Collection of Microorganisms and Cell Cultures GmbH. […] All cell lines were tested negative for mycoplasma contamination (PCR-based assay by Microsynth, Switzerland).
METTL3 (and METTL14) protein degradation was monitored by Western blot. Cells were treated with the indicated concentration of PROTACs or DMSO control (0.1% (v/v)) for 24h, 37 °C with 5% CO2. […] After SDS-PAGE, proteins were transferred to a nitrocellulose membrane, blocked (with 5% milk, 0.5% BSA in TBST buffer), and incubated overnight with primary antibodies. […] Densitometry was performed in Image Studio Lite software and analyzed in GraphPad Prism 9.

The next series concerns METTL14. As to the kind of experiment: Cellular degradation assay (Western blot), METTL14 in MOLM-13. It counts as cell-based, human. Particulars: MOLM-13, 24 h, 2 μM compound. An outline of the steps: (§1)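 24h PROTAC exposure (DMSO 0.1% v/v control), 37 °C, 5% CO2; RIPA lysis, SDS-PAGE, nitrocellulose, anti-METTL3/anti-METTL14 blots, GAPDH/β-actin loading controls, IR imaging, densitometry.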

The target in a further series is T1, METTL3 (Homo sapiens, UniProt Q86U44).
T1 construct: METTL3–14 degradation up to 70% of the endogenous level; endogenous in cells; host or cells: MOLM-13, PC3, DU145
As to the kind of experiment: Cellular degradation assay (Western blot), METTL3 in MOLM-13. Format: cell-based. Conditions: MOLM-13, 24 h, 2 μM compound. An outline of the steps: as §1

The target in series [3] is T2, ternary complex CRBN/PROTAC/METTL3–14 (Homo sapiens, UniProt Q86U44+Q96SW2).
T2 construct: methyltransferase domains (MTD) of METTL3 (residues 354–580); His6 (N, cleaved yes); made in house; host or cells: METTL3-MTD/METTL14-MTD: baculovirus/Sf9; CRBN-TBD: E. coli Rosetta (DE3), co-expressed with BirA
As to the kind of experiment: FRET-based ternary complex formation assay (TCFA). Format: binding. Conditions: for TCFA amplitude (mean ± SEM): Hook curve amplitude, fraction of the maximum of compound 16; for ECmax (nM) ± SD: PROTAC concentration at the maximum of the signal in the TCFA; for ECmax: TCFA, peak of the Hook curve. An outline of the steps: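 HTRF/TR-FRET measurement of PROTAC-induced complex between GST-tagged METTL3–14 and biotinylated CRBN^TBD-Avi (10 nM final) with 0.8 nM Eu^3+ anti-GST antibody, in 50 mM HEPES pH 7.5, 150 mM NaCl, 0.1% BSA, 100 mM KF. Emission ratio used; ECmax and Hook-curve amplitude taken from Gaussian fit or highest-signal data point.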

Another series concerns PC3 cell line. As to the kind of experiment: Cell viability assay (CellTiter-Glo) on PC3. Format: cell-based, human. As for the experimental part: MOLM-13, NOMO-1, THP-1, Kasumi-1, PC3, and DU145 cell lines were obtained from DSMZ-German Collection of Microorganisms and Cell Cultures GmbH. Cells were cultured in RPMI 1640 medium (11875093, Thermo Fisher Scientific) containing 10% FBS (16140071, Thermo Fisher Scientific) and 1% penicillin-streptomycin (15140122, Thermo Fisher Scientific) in 5% CO2 at 37 °C in a humidified incubator, with maintained cell densities at 0.5–1 × 10^6 cells/mL. All cell lines were tested negative for mycoplasma contamination (PCR-based assay by Microsynth, Switzerland).
Cells were seeded in white clear-bottom 96-well plates at a density of 6–20 × 10^3 cells/well in 50 μL of the complete RPMI medium and treated with 50 μL of increasing concentrations of the indicated compounds dissolved in DMSO (final concentration of compounds 0.01–10 μM) or DMSO only as a negative control (0.01% (v/v)) and incubated for 72 h at 37 °C with 5% CO2. Cell viability was determined using a CellTiter-Glo luminescent cell viability assay (Promega) based on the detection of ATP according to the manufacturer’s instructions. 100 μL of the reagent was added to each well and incubated for 10 min at room temperature. The luminescence was recorded using a Tecan Infinite […] M1000 microplate reader from the top. Background luminescence value was obtained from wells containing the CellTiter-Glo reagent and medium without cells. The resulting data was analyzed in GraphPad Prism 9.

Where “and” joins values, the source holds several entries; their conditions need not be identical. Equal values may be shown once.

T1 sequence (Q86U44 2-580 limits assumed): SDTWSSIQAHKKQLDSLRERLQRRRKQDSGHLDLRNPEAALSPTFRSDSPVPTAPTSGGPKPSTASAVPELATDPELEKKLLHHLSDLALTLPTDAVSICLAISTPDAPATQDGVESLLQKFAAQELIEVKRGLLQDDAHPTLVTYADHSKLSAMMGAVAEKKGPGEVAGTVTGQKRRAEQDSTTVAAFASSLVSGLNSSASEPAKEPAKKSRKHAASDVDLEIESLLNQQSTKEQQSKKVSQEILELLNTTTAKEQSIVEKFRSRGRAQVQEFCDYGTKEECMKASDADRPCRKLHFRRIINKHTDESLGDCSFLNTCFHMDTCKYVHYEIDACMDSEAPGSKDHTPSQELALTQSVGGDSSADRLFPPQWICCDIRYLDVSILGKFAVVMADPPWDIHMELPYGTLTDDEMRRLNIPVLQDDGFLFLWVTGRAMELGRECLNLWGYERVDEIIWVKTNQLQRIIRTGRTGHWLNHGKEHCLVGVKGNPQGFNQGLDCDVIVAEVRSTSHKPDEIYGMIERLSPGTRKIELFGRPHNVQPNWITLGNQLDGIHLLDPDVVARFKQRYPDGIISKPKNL
T1 sequence (Q9HCE5 whole entry partner): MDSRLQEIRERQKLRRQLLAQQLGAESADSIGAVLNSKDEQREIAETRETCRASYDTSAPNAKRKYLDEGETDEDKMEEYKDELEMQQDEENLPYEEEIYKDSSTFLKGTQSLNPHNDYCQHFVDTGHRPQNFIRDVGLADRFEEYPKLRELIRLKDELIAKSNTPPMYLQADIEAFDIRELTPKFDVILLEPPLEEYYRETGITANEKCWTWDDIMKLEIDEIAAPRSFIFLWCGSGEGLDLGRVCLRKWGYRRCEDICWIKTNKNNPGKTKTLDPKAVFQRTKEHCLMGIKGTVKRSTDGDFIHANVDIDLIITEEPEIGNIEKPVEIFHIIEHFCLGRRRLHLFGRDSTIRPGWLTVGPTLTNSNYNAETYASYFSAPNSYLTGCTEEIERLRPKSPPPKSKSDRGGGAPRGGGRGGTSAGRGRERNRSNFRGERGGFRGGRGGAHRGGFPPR
Chain of METTL3-14 (Q86U44 2-580 limits assumed): as the sequence (Q86U44 2-580 limits assumed) above
Chain of METTL3-14 (Q9HCE5 whole entry partner): as the sequence (Q9HCE5 whole entry partner) above
T2 sequence (Q86U44 354-580): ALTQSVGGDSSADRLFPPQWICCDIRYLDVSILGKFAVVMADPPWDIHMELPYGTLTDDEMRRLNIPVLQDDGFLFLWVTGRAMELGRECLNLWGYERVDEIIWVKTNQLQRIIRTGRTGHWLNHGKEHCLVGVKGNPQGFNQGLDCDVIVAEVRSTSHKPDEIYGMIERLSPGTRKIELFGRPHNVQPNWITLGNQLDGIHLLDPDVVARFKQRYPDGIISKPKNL
T2 sequence (Q9HCE5 107-395 partner limits assumed): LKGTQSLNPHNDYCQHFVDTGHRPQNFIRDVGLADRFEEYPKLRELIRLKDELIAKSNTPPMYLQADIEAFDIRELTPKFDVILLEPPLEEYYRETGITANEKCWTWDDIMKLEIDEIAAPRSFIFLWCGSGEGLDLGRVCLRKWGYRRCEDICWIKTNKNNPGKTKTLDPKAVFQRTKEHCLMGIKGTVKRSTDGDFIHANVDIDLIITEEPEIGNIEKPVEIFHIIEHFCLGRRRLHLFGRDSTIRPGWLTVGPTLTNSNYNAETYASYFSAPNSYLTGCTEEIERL
T2 sequence (Q96SW2 318-442): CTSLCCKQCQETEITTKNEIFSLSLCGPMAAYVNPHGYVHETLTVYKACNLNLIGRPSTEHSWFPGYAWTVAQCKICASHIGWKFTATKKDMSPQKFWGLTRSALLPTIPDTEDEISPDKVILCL
Chain of His-GST-METTL3^MTD-METTL14^MTD (human) (Q86U44 354-580, chain 1 of 2): as the sequence (Q86U44 354-580) above
Chain of His-GST-METTL3^MTD-METTL14^MTD (human) (chain, as listed by the source, chain 2 of 2): as the sequence (Q9HCE5 107-395 partner limits assumed) above

In series [1], “CRBN^TBD-Avi(biotin) (from UniProt Q96SW2 318-442) (domain or fragment)” returned a degradation of METTL3 and METTL14 in MOLM-13 cells (Western blot) with PROTAC 30 at five concentrations; Hook effect of 60%; a degradation of METTL3 in MOLM-13 cells (Western blot) with PROTAC 14 at five concentrations; Hook effect of 50%.
For the compound `CC1(C)CCN(Cc2cc(F)c(N3CC(=O)NC4(CCN(c5cc(NCCN6CCN(C(=O)CCCCCCCNc7cccc8c7C(=O)N(C7CCC(=O)NC7=O)C8=O)CC6)ncn5)CC4)C3)cc2F)CC1` (centres unmarked) [Compound 31], in series [2], the viability at 72 h, 0.6 µM was 95.4%; the viability at 72 h, 1.25 µM amounted to 88.3%; the viability at 72 h, […] stood at 88%; the viability at 72 h, 5 µM was found to be 85.2%. For the same compound, in series [2], the viability at 72 h, 10 µM stood at 80.2%. In addition, the “degradation of METTL3 and/or METTL14” value on METTL3-14 is given as at least 50%. For the same compound, the “MOLM-13 West. blot at 24h 2 μM comp conc. Degradation (%) of METTL14” value (“MOLM-13 West. blot … (%) of METTL14” below) with METTL14 stood at 55 ± 24%. The “MOLM-13 West. blot at 24h 2 μM comp conc. Degradation (%) of METTL3” value (shortened to “MOLM-13 West. blot … (%) of METTL3”) at METTL3 is on record as 49 ± 33%. In series [3], the “TCFA amplitude (mean ± SEM)” value is reported as 0.9 ± 0.0, the “ECmax (nM) ± SD” value is given as 110 ± 40 nM and the ECmax result is recorded as “submicromolar”.
`CC1(C)CCN(Cc2cc(F)c(N3CC(=O)NC4(CCN(c5cc(NCCN6CCN(c7cccc8c7C(=O)N(C7CCC(=O)NC7=O)C8=O)CC6)ncn5)CC4)C3)cc2F)CC1` (centres unmarked) [Compound 32]: in series [2], the viability at 72 h, 0.6 µM was determined as 106%; the viability at 72 h, 1.25 µM was found to be 106%; the viability at 72 h, […] was determined as 103%; the viability at 72 h, 5 µM worked out at 91.5%. For the same compound, in series [2], the viability at 72 h, 10 µM was determined as 74.6%. Also, the “degradation of METTL3 and/or METTL14” value at METTL3-14 is “inactive”. In addition, in the series on METTL14, the “MOLM-13 West. blot … (%) of METTL14” value is “/ (Degradation <10% or stabilization)”. Further, the “MOLM-13 West. blot … (%) of METTL3” value at METTL3 was “/ (Degradation <10% or stabilization)”. Moreover, in series [3], the “activity / signal in the ternary complex formation assay” value was “inactive” and the “ECmax (nM) ± SD” value is “– ^b”.
With `CC1(C)CCN(Cc2cc(F)c(N3CC(=O)NC4(CCN(c5cc(NCCN6CCN(c7cnc(N8CCN(C(=O)CCCNc9cccc%10c9C(=O)N(C9CCC(=O)NC9=O)C%10=O)CC8)nc7)CC6)ncn5)CC4)C3)cc2F)CC1` (centres unmarked) [Compound 33], in series [2], the viability at 72 h, 0.6 µM stood at 92.1%; the viability at 72 h, 1.25 µM amounted to 90.9%; the viability at 72 h, […] came out at 95.3%; the viability at 72 h, 5 µM was determined as 97.7%. The viability at 72 h, 10 µM in series [2] was determined as 89.6%. The “degradation of METTL3 and/or METTL14” value on METTL3-14 was “at least 50%”. For the same compound, the “MOLM-13 West. blot … (%) of METTL14” value in the series on METTL14 was 51 ± 19%. Besides, the “MOLM-13 West. blot … (%) of METTL3” value at METTL3 is 44% and 44 ± 6%. For the same compound, in series [3], the “TCFA amplitude (mean ± SEM)” value amounted to 0.8 ± 0.1 and the “ECmax (nM) ± SD” value is given as 70 ± 10 nM.
Consider `CC1(C)CCN(Cc2cc(F)c(N3CC(=O)NC4(CCN(c5cc(NCCN6CCN(C(=O)CCCNc7cccc8c7C(=O)N(C7CCC(=O)NC7=O)C8=O)CC6)ncn5)CC4)C3)cc2F)CC1` (centres unmarked) [Compound 29], for which, in series [2], the viability at 72 h, 0.6 µM turned out to be 93.7%; the viability at 72 h, 1.25 µM was 93.5%; the viability at 72 h, […] is 93.4%; the viability at 72 h, 5 µM was 94.5%. Further, in series [2], the viability at 72 h, 10 µM turned out to be 87.4%. Further, on METTL3-14, the “degradation of METTL3 and/or METTL14” value is recorded as at least 50%. Moreover, in the series with METTL14, the “MOLM-13 West. blot … (%) of METTL14” value came out at 51 ± 11%. For the same compound, the “MOLM-13 West. blot … (%) of METTL3” value at METTL3 turned out to be 42 ± 14%. Moreover, in series [3], the “TCFA amplitude (mean ± SEM)” value is given as 1.0 ± 0.0, the “ECmax (nM) ± SD” value amounted to 80 ± 0 nM and the ECmax entry is reported as “submicromolar”.
Take `CNc1cc(N2CCC3(CC2)CN(c2cc(F)c(CN4CCC(C)(C)CC4)cc2F)CC(=O)N3)ncn1` [UZH2, reference compound]: the antiproliferative effect entry in the series with PC3 cell line is reported as “not”. The “METTL3–14 levels” value on METTL3-14 (MOLM-13, 10 μM UZH2 control without PROTAC) is reported as “elevated levels of METTL3–14”. Also, the “activity / signal in the ternary complex formation assay” value in series [3] is “no activity”.

The record behind these values is article PMC10900215 (JACS Au, 2024).
